The source of these data is US9913843B2, “Protein kinase C inhibitors and uses thereof” (Rigel Pharmaceuticals, Inc., priority 2012, dated 2018).

Where two headings read alike, the source gives them in different places.

Broadly, the IC50 is the concentration that inhibits the measured activity by half.

The test system of this test is PKC mediated IL-2 production in human primary T cells. Nature of the test: IL-2 ELISA, human primary T cell, anti CD3+CD28+ (whole cell functional assay for PKC mediated IL-2 production). The format is cell-based. Put shortly: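 IL-2 in supernatants was quantified by ELISA after 24 h at 37 °C. Before stimulation with plate-coated anti-CD3 (1 μg/ml) and anti-CD28 (5 μg/ml), T cells expanded from PBMC were exposed to compound for 1 h; the counter-screen replaced antibodies with PMA 0.5 ng/ml and ionomycin 0.1 μM (final).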
In general terms: In an ELISA, binding on a coated surface is turned into a signal by an enzyme label.

[1] abbreviates: 24 h, human primary T cells stimulated with anti-CD3 + anti-CD28, IL-2 by ELISA, read-out: IC50 for blocking IL-2 production.
[2] abbreviates: human primary T cells stimulated with anti-CD3 + anti-CD28, 24 h, IL-2 by ELISA, 8 pt, read-out: IL2 ELISA, Human primary T cell, anti-CD3 + CD28, 8 pt (IC50).

As to `N#Cc1cccc(Nc2ncc(F)c(NC[C@@H]3CCCN4CCCC[C@H]34)n2)c1` [Compound 10, 3-(4-(((1S,9aR)-octahydro-1H-quinolizin-1-yl)methylamino)-5-fluoropyrimidin-2-ylamino)benzonitrile], the concentration for half-maximal inhibition (IC50) is less than 30 µM under setting [1] and 0.594 µM under setting [2].

As for `COc1cc(Nc2nccc(NC[C@@H]3CCCN4CCCC[C@H]34)n2)cc(OC)c1` [Compound 57, N4-(((1S,9aR)-octahydro-1H-quinolizin-1-yl)methyl)-N2-(3,5-dimethoxyphenyl)pyrimidine-2,4-diamine], the IC50 is less than 30 µM under setting [1] and 3.59 µM under setting [2].

In the case of `Cc1nnnn1-c1ccc(F)c(Nc2ncc(F)c(NC[C@@H]3CCCN4CCCC[C@H]34)n2)c1` [Compound 7, 5-fluoro-N2-(2-fluoro-5-(5-methyl-1H-tetrazol-1-yl)phenyl)-N4-(((1S,9aR)-octahydro-1H-quinolizin-1-yl)methyl)pyrimidine-2,4-diamine], the IC50 under setting [1] is less than 30 µM and the IC50 under setting [2] came to 0.428 µM.

`Cc1nnnn1-c1cc(Nc2ncc(F)c(NC[C@@H]3CCCN4CCCC[C@H]34)n2)c(F)cc1C1CC1` [Compound 23, N2-(4-cyclopropyl-2-fluoro-5-(5-methyl-1H-tetrazol-1-yl)phenyl)-5-fluoro-N4-(((1S,9aR)-octahydro-1H-quinolizin-1-yl)methyl)pyrimidine-2,4-diamine]: the IC50 is, setting by setting: under setting [1], less than 30 µM; under setting [2], 0.0663 µM.

On to `N#Cc1cnc(Nc2cc(-n3nnnc3C3CC3)ccc2F)nc1NC[C@@H]1CCCN2CCCC[C@H]12` [Compound 123, 4-(((1S,9aR)-octahydro-1H-quinolizin-1-yl)methylamino)-2-(5-(5-cyclopropyl-1H-tetrazol-1-yl)-2-fluorophenylamino)pyrimidine-5-carbonitrile], for which the IC50 by setting is: under setting [1], less than 30 µM; under setting [2], 0.0418 µM.

Consider `CC1(C)Oc2cc(Nc3ncc(F)c(NC[C@@H]4CCCN5CCCC[C@H]45)n3)ccc2N(CCCF)C1=O` [Compound 25, 7-(4-(((1S,9aR)-octahydro-1H-quinolizin-1-yl)methylamino)-5-fluoropyrimidin-2-ylamino)-4-(3-fluoropropyl)-2,2-dimethyl-2H-benzo[b][1,4]oxazin-3(4H)-one], for which the IC50 under setting [1] was less than 30 µM and the IC50 under setting [2] was determined as 0.853 µM.

For `O=S1(=O)CCCN1c1cc(Nc2ncc(F)c(NC[C@@H]3CCCN4CCCC[C@H]34)n2)ccc1F` [Compound 24, N2-[3-(1,1-dioxo-isothiazolidin-2-yl)-4-fluoro-phenyl]-5-fluoro-N4-(((1S,9aR)-octahydro-1H-quinolizin-1-yl)methyl)-pyrimidine-2,4-diamine], the IC50 runs as follows: under setting [1], less than 30 µM; under setting [2], 3.45 µM.

Turning to `Cc1ccc(Nc2ncc(N(C)C)c(NC[C@@H]3CCCN4CCCC[C@H]34)n2)cc1C#N` [Compound 93, 5-(4-(((1S,9aR)-octahydro-1H-quinolizin-1-yl)methylamino)-5-(dimethylamino)pyrimidin-2-ylamino)-2-methylbenzonitrile], the IC50 runs as follows: under setting [1], less than 30 µM; under setting [2], 3.92 µM.

With `Cc1ccc(Nc2ncc(F)c(NC[C@@H]3CCCN4CCCC[C@H]34)n2)cc1C#N` [Compound 9, 5-(4-(((1S,9aR)-octahydro-1H-quinolizin-1-yl)methylamino)-5-fluoropyrimidin-2-ylamino)-2-methylbenzonitrile], the IC50 under setting [1] is less than 30 µM and the IC50 under setting [2] is 0.195 µM.

On to `Cn1nnn(-c2cc(Nc3ncc(C#N)c(NC[C@@H]4CCCN5CCCC[C@H]45)n3)c(F)cc2C2CC2)c1=O` [Compound 99, 4-(((1S,9aR)-octahydro-1H-quinolizin-1-yl)methylamino)-2-(4-cyclopropyl-2-fluoro-5-(4,5-dihydro-4-methyl-5-oxotetrazol-1-yl)phenylamino)pyrimidine-5-carbonitrile], for which the IC50 is less than 30 µM under setting [1] and 0.0509 µM under setting [2].

`N#Cc1cc(Nc2ncc(Cl)c(NCC3CCCN4CCCCC34)n2)ccc1C1CC1` [Compound 5, 5-(4-(((1S,9aR)-octahydro-1H-quinolizin-9-yl)methylamino)-5-chloropyrimidin-2-ylamino)-2-cyclopropylbenzonitrile]: the IC50 was less than 30 µM under setting [1] and 0.12 µM under setting [2].

As to `COc1cc(Nc2ncc(N(C)C)c(NC[C@@H]3CCCN4CCCC[C@H]34)n2)cc(-n2nnnc2C)c1` [Compound 91, N4-(((1S,9aR)-octahydro-1H-quinolizin-1-yl)methyl)-N2-(3-methoxy-5-(5-methyl-1H-tetrazol-1-yl)phenyl)-N5,N5-dimethylpyrimidine-2,4,5-triamine], the IC50 under setting [1] was less than 30 µM and the IC50 under setting [2] was 7.94 µM.

In the case of `N#Cc1cnc(Nc2ccc(Cl)c(-n3nnnc3C3CC3)c2)nc1NC[C@@H]1CCCN2CCCC[C@H]12` [Compound 124, 4-(((1S,9aR)-octahydro-1H-quinolizin-1-yl)methylamino)-2-(4-chloro-3-(5-cyclopropyl-1H-tetrazol-1-yl)phenylamino)pyrimidine-5-carbonitrile], the IC50 by setting is: under setting [1], less than 30 µM; under setting [2], 0.0031 µM.

In the case of `CC(O)COc1ccc(Nc2ncc(F)c(NC[C@@H]3CCCN4CCCC[C@H]34)n2)cc1C#N` (stereo partly drawn) [Compound 145, 5-((5-fluoro-4-((((1S,9aR)-octahydro-2H-quinolizin-1-yl)methyl)amino)pyrimidin-2-yl)amino)-2-(2-hydroxypropoxy)benzonitrile], the IC50 reads like this: under setting [1], less than 30 µM; under setting [2], 4.63 µM.

Regarding `COc1cc(Nc2ncc(C(F)(F)F)c(NC[C@@H]3CCCN4CCCC[C@H]34)n2)cc(-n2nnnc2C)c1` [Compound 106, 5-(trifluoromethyl)-N4-(((1S,9aR)-octahydro-1H-quinolizin-1-yl)methyl)-N2-(3-methoxy-5-(5-methyl-1H-tetrazol-1-yl)phenyl)pyrimidine-2,4-diamine], the IC50 was less than 30 µM under setting [1] and 21.5 µM under setting [2].

Turning to `CN(C)c1cnc(Nc2ccc3oc(=O)[nH]c3c2)nc1NC[C@@H]1CCCN2CCCC[C@H]12` [Compound 97, 5-(4-(((1S,9aR)-octahydro-1H-quinolizin-1-yl)methylamino)-5-(dimethylamino)pyrimidin-2-ylamino)benzo[d]oxazol-2(3H)-one], the IC50 under setting [1] is less than 30 µM and the IC50 under setting [2] came out at 5.41 µM.

As to `N#Cc1cc(Nc2ncc(F)c(NC[C@@H]3CCCN4CCCC[C@H]34)n2)c(F)cc1C1CC1` [Compound 12, 5-(4-(((1S,9aR)-octahydro-1H-quinolizin-1-yl)methylamino)-5-fluoropyrimidin-2-ylamino)-2-cyclopropyl-4-fluorobenzonitrile], the IC50 was less than 30 µM under setting [1] and 0.889 µM under setting [2].

Consider `Cn1nnn(-c2cc(Nc3ncc(Cl)c(NC[C@@H]4CCCN5CCCC[C@H]45)n3)c(F)cc2OCC(C)(C)O)c1=O` [Compound 155, 1-(5-((5-chloro-4-((((1S,9aR)-octahydro-2H-quinolizin-1-yl)methyl)amino)pyrimidin-2-yl)amino)-4-fluoro-2-(2-hydroxy-2-methylpropoxy)phenyl)-4-methyl-1,4-dihydro-5H-tetrazol-5-one], for which the IC50 is, setting by setting: under setting [1], less than 30 µM; under setting [2], 0.136 µM.

For `N#Cc1cnc(Nc2cc(-n3cnnn3)c(C3CC3)cc2F)nc1NC[C@@H]1CCCN2CCCC[C@H]12` [Compound 116, 4-(((1S,9aR)-octahydro-1H-quinolizin-1-yl)methylamino)-2-(4-cyclopropyl-2-fluoro-5-(1H-tetrazol-1-yl)phenylamino)pyrimidine-5-carbonitrile], the IC50 reads like this: under setting [1], less than 30 µM; under setting [2], 0.0074 µM.

As to `COc1cc(Nc2ncc(Cl)c(NC[C@@H]3CCCN4CCCC[C@H]34)n2)cc(OC)c1` [Compound 43, 5-chloro-N4-(((1S,9aR)-octahydro-1H-quinolizin-1-yl)methyl)-N2-(3,5-dimethoxyphenyl)pyrimidine-2,4-diamine], the IC50 was less than 30 µM under setting [1] and 0.412 µM under setting [2].

As to `N#Cc1cc(Nc2ncc(C#N)c(NC[C@@H]3CCCN4CCCC[C@H]34)n2)ccc1C1CC1` [Compound 120, 4-(((1S,9aR)-octahydro-1H-quinolizin-1-yl)methylamino)-2-(3-cyano-4-cyclopropylphenylamino)pyrimidine-5-carbonitrile], the IC50 under setting [1] was less than 30 µM and the IC50 under setting [2] was 0.0093 µM.

For the compound `COc1cc(Nc2ncc(C)c(NC[C@@H]3CCCN4CCCC[C@H]34)n2)cc(-n2nnnc2C)c1` [Compound 65, N4-(((1S,9aR)-octahydro-1H-quinolizin-1-yl)methyl)-N2-(3-methoxy-5-(5-methyl-1H-tetrazol-1-yl)phenyl)-5-methylpyrimidine-2,4-diamine], the concentration for half-maximal inhibition (IC50) under setting [1] was less than 30 µM and the IC50 under setting [2] amounted to 0.0728 µM.

On to `N#Cc1cc(Nc2ncc(C(F)(F)F)c(NC[C@@H]3CCCN4CCCC[C@H]34)n2)c(F)cc1C1CC1` [Compound 110, 5-(4-(((1S,9aR)-octahydro-1H-quinolizin-1-yl)methylamino)-5-(trifluoromethyl)pyrimidin-2-ylamino)-2-cyclopropyl-4-fluorobenzonitrile], for which the IC50 under setting [1] is less than 30 µM and the IC50 under setting [2] turned out to be 10.7 µM.

For `COc1ccc(Nc2ncc(Cl)c(NC[C@@H]3CCCN4CCCC[C@H]34)n2)cc1-n1nnnc1C` [Compound 37, 5-chloro-N4-(((1S,9aR)-octahydro-1H-quinolizin-1-yl)methyl)-N2-(4-methoxy-3-(5-methyl-1H-tetrazol-1-yl)phenyl)pyrimidine-2,4-diamine], the IC50 reads like this: under setting [1], less than 30 µM; under setting [2], 0.0872 µM.

As for `OCCOc1ccc(Nc2ncc(F)c(NC[C@@H]3CCCN4CCCC[C@H]34)n2)cc1-n1cnnn1` [Compound 138, 2-(4-((5-fluoro-4-((((1S,9aR)-octahydro-2H-quinolizin-1-yl)methyl)amino)pyrimidin-2-yl)amino)-2-(1H-tetrazol-1-yl)phenoxy)ethan-1-ol], the IC50 under setting [1] is less than 30 µM and the IC50 under setting [2] was 0.0493 µM.
